{
  "source": "patent US9255295B2",
  "about": "“Method for evaluating the sensitizing potential of a test compound” (IMMUNOSEARCH, priority 2010, dated 2016)",
  "system": "genes specific for sensitization (BRAK, CTSS, DAPK2, FABP4, HSP27, IL18, HSP90, IL1R2, TPSAB1, CXCR1, DEFB1, DHFR, EHF, IVL, KRT4, MELANA, NGAL, PDZK1IP1, PI3 …)",
  "assay": "Expression of the other (non-ARE) sensitization-specific genes in EPISKIN reconstructed skin (quantitative RT-PCR)",
  "type": "cell-based, human",
  "data": [
    {"smiles": "Oc1ccc(O)cc1", "note": "[Hydroquinone]", "values": [
      {"measurement": "TOTAL SENS (NUMBER OF GENES)", "setting": "1%", "result": 5},
      {"measurement": "BRAK expression compared to control", "setting": "10%", "result": 0.8},
      {"measurement": "BRAK grade (NUMBER OF GENES)", "setting": "10%", "result": "0 (if this expression is lower, the grade is 0)"},
      {"measurement": "CTSS expression compared to control", "setting": "10%", "result": 0.8},
      {"measurement": "CTSS grade (NUMBER OF GENES)", "setting": "10%", "result": "0 (if this expression is lower, the grade is 0)"},
      {"measurement": "CXCR1 expression compared to control", "setting": "10%", "result": 2.2},
      {"measurement": "CXCR1 grade (NUMBER OF GENES)", "setting": "10%", "result": "1 (If the expression is greater than 1.3 compared to the control, a grade of 11s given)"},
      {"measurement": "DAPK2 expression compared to control", "setting": "10%", "result": 1.2},
      {"measurement": "DAPK2 grade (NUMBER OF GENES)", "setting": "10%", "result": "0 (if this expression is lower, the grade is 0)"},
      {"measurement": "DEFB1 expression compared to control", "setting": "10%", "result": 1.5},
      {"measurement": "DEFB1 grade (NUMBER OF GENES)", "setting": "10%", "result": "1 (If the expression is greater than 1.3 compared to the control, a grade of 11s given)"},
      {"measurement": "DHFR expression compared to control", "setting": "10%", "result": 0.7},
      {"measurement": "DHFR grade (NUMBER OF GENES)", "setting": "10%", "result": "0 (if this expression is lower, the grade is 0)"},
      {"measurement": "EHF expression compared to control", "setting": "10%", "result": 1.2},
      {"measurement": "EHF grade (NUMBER OF GENES)", "setting": "10%", "result": "0 (if this expression is lower, the grade is 0)"},
      {"measurement": "FABP4 expression compared to control", "setting": "10%", "result": 1.2},
      {"measurement": "FABP4 grade (NUMBER OF GENES)", "setting": "10%", "result": "0 (if this expression is lower, the grade is 0)"},
      {"measurement": "HSP27 expression compared to control", "setting": "10%", "result": 1.0},
      {"measurement": "HSP27 grade (NUMBER OF GENES)", "setting": "10%", "result": "0 (if this expression is lower, the grade is 0)"},
      {"measurement": "HSP90 expression compared to control", "setting": "10%", "result": 1.2},
      {"measurement": "HSP90 grade (NUMBER OF GENES)", "setting": "10%", "result": "0 (if this expression is lower, the grade is 0)"},
      {"measurement": "IL18 expression compared to control", "setting": "10%", "result": 0.9},
      {"measurement": "IL18 grade (NUMBER OF GENES)", "setting": "10%", "result": "0 (if this expression is lower, the grade is 0)"},
      {"measurement": "IVL expression compared to control", "setting": "10%", "result": 1.8},
      {"measurement": "IVL grade (NUMBER OF GENES)", "setting": "10%", "result": "1 (If the expression is greater than 1.3 compared to the control, a grade of 11s given)"},
      {"measurement": "KRT4 expression compared to control", "setting": "10%", "result": 1.2},
      {"measurement": "KRT4 grade (NUMBER OF GENES)", "setting": "10%", "result": "0 (if this expression is lower, the grade is 0)"},
      {"measurement": "MELANA expression compared to control", "setting": "10%", "result": 0.9},
      {"measurement": "MELANA grade (NUMBER OF GENES)", "setting": "10%", "result": "0 (if this expression is lower, the grade is 0)"},
      {"measurement": "NGAL expression compared to control", "setting": "10%", "result": 2.0},
      {"measurement": "NGAL grade (NUMBER OF GENES)", "setting": "10%", "result": "1 (If the expression is greater than 1.3 compared to the control, a grade of 11s given)"},
      {"measurement": "P13 expression compared to control", "setting": "10%", "result": 1.4},
      {"measurement": "P13 grade (NUMBER OF GENES)", "setting": "10%", "result": "0 (if this expression is lower, the grade is 0)"},
      {"measurement": "PDZK1iP1 expression compared to control", "setting": "10%", "result": 1.0},
      {"measurement": "PDZK1iP1 grade (NUMBER OF GENES)", "setting": "10%", "result": "0 (if this expression is lower, the grade is 0)"},
      {"measurement": "SENS >1.3 (NUMBER OF GENES)", "setting": "10%", "result": 4},
      {"measurement": "SERPINB3 expression compared to control", "setting": "10%", "result": 1.1},
      {"measurement": "SERPINB3 grade (NUMBER OF GENES)", "setting": "10%", "result": "0 (if this expression is lower, the grade is 0)"},
      {"measurement": "TOTAL SENS (NUMBER OF GENES)", "setting": "10%", "result": 4},
      {"measurement": "BRAK expression compared to control", "setting": "50%", "result": 0.8},
      {"measurement": "BRAK grade (NUMBER OF GENES)", "setting": "50%", "result": "0 (if this expression is lower, the grade is 0)"},
      {"measurement": "CTSS expression compared to control", "setting": "50%", "result": 1.6},
      {"measurement": "CTSS grade (NUMBER OF GENES)", "setting": "50%", "result": "1 (If the expression is greater than 1.3 compared to the control, a grade of 11s given)"},
      {"measurement": "CXCR1 expression compared to control", "setting": "50%", "result": 2.9},
      {"measurement": "CXCR1 grade (NUMBER OF GENES)", "setting": "50%", "result": "1 (If the expression is greater than 1.3 compared to the control, a grade of 11s given)"},
      {"measurement": "DAPK2 expression compared to control", "setting": "50%", "result": 1.0},
      {"measurement": "DAPK2 grade (NUMBER OF GENES)", "setting": "50%", "result": "0 (if this expression is lower, the grade is 0)"},
      {"measurement": "DEFB1 expression compared to control", "setting": "50%", "result": 2.0},
      {"measurement": "DEFB1 grade (NUMBER OF GENES)", "setting": "50%", "result": "1 (If the expression is greater than 1.3 compared to the control, a grade of 11s given)"},
      {"measurement": "DHFR expression compared to control", "setting": "50%", "result": 1.1},
      {"measurement": "DHFR grade (NUMBER OF GENES)", "setting": "50%", "result": "0 (if this expression is lower, the grade is 0)"},
      {"measurement": "EHF expression compared to control", "setting": "50%", "result": 1.5},
      {"measurement": "EHF grade (NUMBER OF GENES)", "setting": "50%", "result": "1 (If the expression is greater than 1.3 compared to the control, a grade of 11s given)"},
      {"measurement": "FABP4 expression compared to control", "setting": "50%", "result": 1.4},
      {"measurement": "FABP4 grade (NUMBER OF GENES)", "setting": "50%", "result": "1 (If the expression is greater than 1.3 compared to the control, a grade of 11s given)"},
      {"measurement": "HSP27 expression compared to control", "setting": "50%", "result": 1.3},
      {"measurement": "HSP27 grade (NUMBER OF GENES)", "setting": "50%", "result": "0 (if this expression is lower, the grade is 0)"},
      {"measurement": "HSP90 expression compared to control", "setting": "50%", "result": 1.8},
      {"measurement": "HSP90 grade (NUMBER OF GENES)", "setting": "50%", "result": "1 (If the expression is greater than 1.3 compared to the control, a grade of 11s given)"},
      {"measurement": "IL18 expression compared to control", "setting": "50%", "result": 0.9},
      {"measurement": "IL18 grade (NUMBER OF GENES)", "setting": "50%", "result": "0 (if this expression is lower, the grade is 0)"},
      {"measurement": "IVL expression compared to control", "setting": "50%", "result": 2.6},
      {"measurement": "IVL grade (NUMBER OF GENES)", "setting": "50%", "result": "1 (If the expression is greater than 1.3 compared to the control, a grade of 11s given)"},
      {"measurement": "KRT4 expression compared to control", "setting": "50%", "result": 1.1},
      {"measurement": "KRT4 grade (NUMBER OF GENES)", "setting": "50%", "result": "0 (if this expression is lower, the grade is 0)"},
      {"measurement": "MELANA expression compared to control", "setting": "50%", "result": 1.6},
      {"measurement": "MELANA grade (NUMBER OF GENES)", "setting": "50%", "result": "1 (If the expression is greater than 1.3 compared to the control, a grade of 11s given)"},
      {"measurement": "NGAL expression compared to control", "setting": "50%", "result": 1.3},
      {"measurement": "NGAL grade (NUMBER OF GENES)", "setting": "50%", "result": "0 (if this expression is lower, the grade is 0)"},
      {"measurement": "P13 expression compared to control", "setting": "50%", "result": 1.7},
      {"measurement": "P13 grade (NUMBER OF GENES)", "setting": "50%", "result": "1 (If the expression is greater than 1.3 compared to the control, a grade of 11s given)"},
      {"measurement": "PDZK1iP1 expression compared to control", "setting": "50%", "result": 1.0},
      {"measurement": "PDZK1iP1 grade (NUMBER OF GENES)", "setting": "50%", "result": "0 (if this expression is lower, the grade is 0)"},
      {"measurement": "SENS >1.3 (NUMBER OF GENES)", "setting": "50%", "result": 11},
      {"measurement": "SERPINB3 expression compared to control", "setting": "50%", "result": 1.1},
      {"measurement": "SERPINB3 grade (NUMBER OF GENES)", "setting": "50%", "result": "0 (if this expression is lower, the grade is 0)"},
      {"measurement": "TOTAL SENS (NUMBER OF GENES)", "setting": "50%", "result": 11}
    ]}
  ]
}
